{
  "source": "patent US10370642B2",
  "about": "“Hematopoietic progenitor cell populations having affinity for E-selectin / L-selectin” (priority 2000, dated 2019)",
  "format_in_all_cases": "cell-based, human",
  "key": {"[1]": {"system": "KG1a cells", "assay": "CHO-E cell rolling on glutaraldehyde-fixed KG1a monolayers", "conditions": "2.8 dynes/cm^2; EDTA 5 mM; HECA 452 50 μg/ml", "source_text": "(§1) E-selectin-mediated adhesive interactions, under defined shear stress, were examined between hematopoietic cell monolayers and suspensions of CHO-E (Chinese hamster ovary cells stably transfected with full-length cDNA encoding human E-selectin) in flow. CHO-E and empty vector constructs (CHO-Mock) were maintained in MEM 10% FBS/1% Penicillin/Streptomycin (Life Technologies, Inc.) and HAM's F-12 (Cellgro, Inc.)/5% FCS/1% Penicillin/Streptomycin, respectively. CHO-E cell tethering and rolling on hematopoietic cell monolayers was visualized by video microscopy in real time using the parallel-plate flow chamber. […] To prepare hematopoietic cell monolayers>90% confluent, suspensions of cells (KG1a, HL60, K562, or RPMI 8402) at 2×10^6/ml RPMI1640 without NaBicarbonate/2% FBS were cytocentrifuged in […] plates at 5×10^6/well and then fixed in 3% glutaraldehyde. Reactive aldehyde groups were blocked in 0.2M lysine, and plated cells were suspended H/H/Ca++. […] The number of CHO-E/Mock cell rolling on each monolayer was measured in one frame of five independent fields under 10× magnification from multiple experiments. A minimum of 3 experiments was performed and results were expressed as the mean±standard deviation."}, "[2]": {"system": "HL60 cells", "assay": "CHO-E cell rolling on glutaraldehyde-fixed HL60 monolayers", "conditions": "2.8 dynes/cm^2; EDTA 5 mM; HECA 452 50 μg/ml", "source_text": "as §1"}, "[3]": {"system": "KG1a cells", "assay": "L-selectin ligand activity of treated KG1a cells, parallel-plate flow chamber", "conditions": "thoracic duct lymphocytes, shear stress 4.4 dynes/cm^2", "experimental": "Leukocyte tethering and rolling on human HC monolayers was visualized by video microscopy in real time using the parallel-plate flow chamber prepared in the following manner. Prior to experimentation, leukocytes were washed twice in HBSS and then suspended at 10^7/ml in HBSS/10 mM HEPES/2mMCaCl2 (H/H/Ca^++). […] To prepare human HC monolayers (100% confluent), suspensions of HCs (KG 1a, HL60, RPMI 8402, K562) at 2×10^6/ml RPMI-1640 without Na+Bicarbonate/2% FBS were seeded in 6-well plates at 5×10^6/well, centrifuged to layer cells then fixed in 3% glutaraldehyde. Reactive aldehyde groups were blocked in 0.2M lysine, and plated cells were suspended H/H/Ca^++. To assess the dependence of binding by sialic acid residues on L-selectin ligands, cells were pretreated with Vibrio cholerae neuraminidase (0.1 U/mlH/H/Ca^++ for lhr at 37° C.). To examine the contribution of sialomucins (including PSGL-1) and PSGL-1 alone, OSGE (60 μg/ml H/H/Ca^++ for lhr at 37° C.) or mocarhagin (10 μg/ml for 20 min at 37° C.) treatments were performed, respectively. […] The number of leukocytes rolling in one frame of five independent fields under 200× magnification at shear stress of 0.2, 0.4, 0.8, 2.2, 4.4, 8.8, 17.6 and 26.4 dynes/cm^2 were quantified. A minimum of 3 experiments was performed over the entire range of shear stress and results were expressed as the mean±standard deviation."}},
  "data": [
    {"substance": "neuraminidase: Vibrio cholerae neuraminidase, cleaves terminal sialic acids", "values": [
      {"measurement": "CHO-E cell rolling / E-selectin ligand activity of KG1a cells", "setting": "[1]", "result": "completely inhibited"},
      {"measurement": "CHO-E cell rolling / E-selectin ligand activity of HL60 cells", "setting": "[2]", "result": "completely inhibited"},
      {"measurement": "% Control Mean Lymphocyte Binding", "setting": "[3]", "result": 0.3, "unit": "% Control"}
    ]}
  ]
}
